Measurements reported in ChEMBL document CHEMBL1201862, “PubChem BioAssay data set” (2004).
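Tested at 5 concentrations; 48 h exposure; 96-well plates; endpoints linearly interpolated, else capped at highest concentration. GI50 is the concentration that inhibits growth by half.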 The source made the active and inactive calls. No stated cut-off is given here; in the data, active = GI50 up to about 1.1 µM and inactive = higher.

Tests used:
Experiment in all cases: inhibition of tumour cell growth, NCI panel, 48 h
BT-549 = system: BT-549
EKVX = system: EKVX
SK-MEL-5 = system: SK-MEL-5
HT-29 = system: HT-29
SK-MEL-2 = system: SK-MEL-2
HCT-15 = system: HCT-15
CAKI-1 = system: CAKI-1
Hs-578T = system: Hs-578T
M14 = system: M14
DU-145 = system: DU-145
HCT-116 = system: HCT-116
NCI-H460 = system: NCI-H460
A549 = system: A549
SF-295 = system: SF-295
IGROV-1 = system: IGROV-1
UACC-62 = system: UACC-62
MOLT-4 = system: MOLT-4
RXF 393 = system: RXF 393
KM12 = system: KM12
UACC-257 = system: UACC-257
SW-620 = system: SW-620
UO-31 = system: UO-31
RPMI-8226 = system: RPMI-8226
SF-268 = system: SF-268
OVCAR-4 = system: OVCAR-4
HOP-92 = system: HOP-92
SR = system: SR
OVCAR-5 = system: OVCAR-5
MDA-MB-435 = system: MDA-MB-435
MDA-MB-231 = system: MDA-MB-231
OVCAR-3 = system: OVCAR-3
MDA-N = system: MDA-N
OVCAR-8 = system: OVCAR-8
ACHN = system: ACHN
K562 = system: K562
LOX IMVI = system: LOX IMVI
NCI-H23 = system: NCI-H23
SF-539 = system: SF-539
U-251 = system: U-251
COLO 205 = system: COLO 205
NCI/ADR-RES = system: NCI/ADR-RES
SNB-75 = system: SNB-75
NCI-H522 = system: NCI-H522
PC-3 = system: PC-3
MCF7 = system: MCF7
SK-MEL-28 = system: SK-MEL-28
TK-10 = system: TK-10
T47D = system: T47D
CCRF-CEM = system: CCRF-CEM
HL-60 = system: HL-60
SN12C = system: SN12C
SNB-19 = system: SNB-19
HCC 2998 = system: HCC 2998
SK-OV-3 = system: SK-OV-3

CCOC(=O)C1=NN(c2ccc(C)cc2)C2=CC(C)=NN(C)C(=S)N21
GI50 (BT-549): > 100 µM (inactive)
GI50 (EKVX): 81.1 µM (inactive)
GI50 (SK-MEL-5): > 100 µM (inactive)
GI50 (HT-29): > 100 µM (inactive)
GI50 (SK-MEL-2): > 100 µM (inactive)
GI50 (HCT-15): > 100 µM
GI50 (CAKI-1): 24.4 µM (inactive)
GI50 (Hs-578T): 48.5 µM (inactive)
GI50 (M14): > 100 µM (inactive)
GI50 (DU-145): > 100 µM (inactive)
GI50 (HCT-116): 31.1 µM (inactive)
GI50 (NCI-H460): > 100 µM (inactive)
GI50 (A549): 70.6 µM (inactive)
GI50 (SF-295): > 100 µM (inactive)
GI50 (IGROV-1): > 100 µM (inactive)
GI50 (UACC-62): 31.9 µM (inactive)
GI50 (MOLT-4): > 100 µM (inactive)
GI50 (RXF 393): 12.6 µM (inactive)
GI50 (KM12): > 100 µM (inactive)
GI50 (UACC-257): > 100 µM (inactive)
GI50 (SW-620): 54.2 µM (inactive)
GI50 (UO-31): > 100 µM (inactive)
GI50 (RPMI-8226): > 100 µM (inactive)
GI50 (SF-268): 85.5 µM (inactive)
GI50 (OVCAR-4): > 100 µM (inactive)
GI50 (HOP-92): > 10 µM (inactive)
GI50 (SR): > 100 µM (inactive)
GI50 (OVCAR-5): 88.5 µM (inactive)
GI50 (MDA-MB-435): > 100 µM (inactive)
GI50 (MDA-MB-231): 82.4 µM (inactive)
GI50 (OVCAR-3): 60 µM (inactive)
GI50 (MDA-N): > 100 µM (inactive)
GI50 (OVCAR-8): 42.9 µM (inactive)
GI50 (ACHN): 43.5 µM (inactive)
GI50 (K562): > 100 µM (inactive)
GI50 (LOX IMVI): 26.9 µM (inactive)
GI50 (NCI-H23): 30.1 µM (inactive)
GI50 (SF-539): 64 µM (inactive)
GI50 (U-251): 38.5 µM (inactive)
GI50 (COLO 205): > 100 µM (inactive)
GI50 (NCI/ADR-RES): > 100 µM (inactive)
GI50 (SNB-75): 23.1 µM (inactive)
GI50 (NCI-H522): 12.2 µM (inactive)
GI50 (PC-3): > 100 µM (inactive)
GI50 (MCF7): > 10 µM (inactive)
GI50 (SK-MEL-28): > 100 µM (inactive)
GI50 (TK-10): 36.1 µM (inactive)
GI50 (T47D): 26.4 µM (inactive)
GI50 (CCRF-CEM): > 100 µM (inactive)
GI50 (HL-60): > 100 µM (inactive)
GI50 (SN12C): > 100 µM (inactive)
GI50 (SNB-19): > 100 µM (inactive)
GI50 (HCC 2998): > 100 µM (inactive)
GI50 (SK-OV-3): 70.3 µM (inactive)
